Assay results: paper PMC11648915, “Identification and development of TRPM4 antagonists to counteract neuronal excitotoxicity” (iScience, 2024)
Entries after “also recorded” stand apart in the source; their conditions may differ. Read-outs that look alike come from different tables or passages of the source.

Tests used:
[1] = system: broad panel of receptors, enzymes, and ion channels; test: SafetyScreen44 in vitro pharmacology panel (whole panel); format: binding; conditions: SafetyScreen44, 5 μM; active = inhibition above 50%
Description: We next used in vitro assays to test absorption, distribution, metabolism, excretion and toxicity (ADMET) parameters for selected compounds. We assessed compound absorption using parallel artificial membrane permeability (PAMPA) and Caco-2 cell permeability assays (cut-off criterion >2 × 10^−6 cm s^−1). Compound toxicity was evaluated by measuring inhibition of cytochrome P450 enzymes (CYP), the potassium channel human Ether-a-go-go Related Gene (hERG), and TRPM5, with all parameters meeting acceptable criteria. […] To assess potential off-target activity of our compounds that could be relevant for safety in humans, we conducted comprehensive in vitro pharmacology using the commercially available and widely used SafetyScreen44 interaction panel[60] covering eight protein families.
For in vitro pharmacological profiling and determination of off target effects compound were screened at a 5 μM in duplicate for their potential to bind to a broad panel of receptors, enzymes, and ion channels on a commercially available platform (Safetyscreen 44 Panel; Eurofins Cerep, Le Bois l'Evêque, B.P. 30001, 86 600 Celle l'Evescault, France), Study ID FR095-0009609).

[2] = In vivo pharmacokinetics after single i.p. or i.v. dose; conditions: female, C57BL/6J, mouse
Description: Next, to assess in vivo availability of the Series 1–3 compounds, we evaluated drug metabolism and pharmacokinetics (DMPK). We measured compound concentrations in plasma, heart, and brain at several time points after intraperitoneal (i.p.) or intravenous (i.v.) single-dose injections.
Half-life and bioavailability were calculated by noncompartmental analysis using the R package PK[84] (v1.3-6).

mouse TRPM4 = molecular target: T1, mouse TRPM4 (Mus musculus, UniProt Q7TN37); test: Inside-out patch clamp, mouse TRPM4; format: cell-based; conditions: inside-out patch clamp configuration
T1 construct: Human TRPM4 (UniProtKB: Q8TD43-1) and mouse Trpm4 (UniProtKB: Q7TN37-1) were amplified via PCR; eGFP (C); expressed in transfected cells
T1 sequence (Q7TN37 whole entry): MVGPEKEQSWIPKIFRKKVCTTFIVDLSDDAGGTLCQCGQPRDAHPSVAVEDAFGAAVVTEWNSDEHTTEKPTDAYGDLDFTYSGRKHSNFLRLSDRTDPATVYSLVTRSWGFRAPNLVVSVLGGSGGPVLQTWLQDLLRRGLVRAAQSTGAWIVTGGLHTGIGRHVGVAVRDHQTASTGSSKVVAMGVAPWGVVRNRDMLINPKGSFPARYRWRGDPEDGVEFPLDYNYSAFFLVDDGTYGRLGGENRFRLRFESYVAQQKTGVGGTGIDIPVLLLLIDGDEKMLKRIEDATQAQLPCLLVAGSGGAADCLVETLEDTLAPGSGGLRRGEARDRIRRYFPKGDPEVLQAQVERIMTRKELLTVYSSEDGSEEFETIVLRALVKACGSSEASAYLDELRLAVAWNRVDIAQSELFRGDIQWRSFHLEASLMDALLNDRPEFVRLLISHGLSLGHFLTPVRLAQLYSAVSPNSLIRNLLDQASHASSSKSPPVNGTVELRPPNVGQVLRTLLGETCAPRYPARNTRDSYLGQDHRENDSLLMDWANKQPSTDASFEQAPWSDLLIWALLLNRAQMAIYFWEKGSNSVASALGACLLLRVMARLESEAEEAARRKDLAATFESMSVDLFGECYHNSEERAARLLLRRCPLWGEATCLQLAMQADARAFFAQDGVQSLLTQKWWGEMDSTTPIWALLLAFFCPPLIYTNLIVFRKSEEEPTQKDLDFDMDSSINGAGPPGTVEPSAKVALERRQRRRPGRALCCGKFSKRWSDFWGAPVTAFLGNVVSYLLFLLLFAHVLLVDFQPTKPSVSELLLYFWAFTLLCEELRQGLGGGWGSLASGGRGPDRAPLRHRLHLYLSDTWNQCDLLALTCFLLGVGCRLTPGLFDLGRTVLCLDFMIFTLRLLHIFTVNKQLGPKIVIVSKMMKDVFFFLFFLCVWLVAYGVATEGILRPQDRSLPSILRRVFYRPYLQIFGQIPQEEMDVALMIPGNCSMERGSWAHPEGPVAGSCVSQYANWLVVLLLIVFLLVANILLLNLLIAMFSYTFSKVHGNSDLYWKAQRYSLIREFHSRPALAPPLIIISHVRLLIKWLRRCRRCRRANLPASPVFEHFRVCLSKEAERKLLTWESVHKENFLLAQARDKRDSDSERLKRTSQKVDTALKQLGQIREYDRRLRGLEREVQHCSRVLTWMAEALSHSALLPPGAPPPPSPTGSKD

[3] = molecular target: hsTRPM4 L907A, S924A and L907A/S924A mutants (Homo sapiens, UniProt Q8TD43, L907A/S924A); test: Whole-cell patch clamp of wild-type and binding-site mutant hsTRPM4; conditions: whole-cell voltage clamp
hsTRPM4 L907A, S924A and L907A/S924A mutants (Homo sapiens, UniProt Q8TD43, L907A/S924A), sequence (Q8TD43 whole entry L907A/S924A): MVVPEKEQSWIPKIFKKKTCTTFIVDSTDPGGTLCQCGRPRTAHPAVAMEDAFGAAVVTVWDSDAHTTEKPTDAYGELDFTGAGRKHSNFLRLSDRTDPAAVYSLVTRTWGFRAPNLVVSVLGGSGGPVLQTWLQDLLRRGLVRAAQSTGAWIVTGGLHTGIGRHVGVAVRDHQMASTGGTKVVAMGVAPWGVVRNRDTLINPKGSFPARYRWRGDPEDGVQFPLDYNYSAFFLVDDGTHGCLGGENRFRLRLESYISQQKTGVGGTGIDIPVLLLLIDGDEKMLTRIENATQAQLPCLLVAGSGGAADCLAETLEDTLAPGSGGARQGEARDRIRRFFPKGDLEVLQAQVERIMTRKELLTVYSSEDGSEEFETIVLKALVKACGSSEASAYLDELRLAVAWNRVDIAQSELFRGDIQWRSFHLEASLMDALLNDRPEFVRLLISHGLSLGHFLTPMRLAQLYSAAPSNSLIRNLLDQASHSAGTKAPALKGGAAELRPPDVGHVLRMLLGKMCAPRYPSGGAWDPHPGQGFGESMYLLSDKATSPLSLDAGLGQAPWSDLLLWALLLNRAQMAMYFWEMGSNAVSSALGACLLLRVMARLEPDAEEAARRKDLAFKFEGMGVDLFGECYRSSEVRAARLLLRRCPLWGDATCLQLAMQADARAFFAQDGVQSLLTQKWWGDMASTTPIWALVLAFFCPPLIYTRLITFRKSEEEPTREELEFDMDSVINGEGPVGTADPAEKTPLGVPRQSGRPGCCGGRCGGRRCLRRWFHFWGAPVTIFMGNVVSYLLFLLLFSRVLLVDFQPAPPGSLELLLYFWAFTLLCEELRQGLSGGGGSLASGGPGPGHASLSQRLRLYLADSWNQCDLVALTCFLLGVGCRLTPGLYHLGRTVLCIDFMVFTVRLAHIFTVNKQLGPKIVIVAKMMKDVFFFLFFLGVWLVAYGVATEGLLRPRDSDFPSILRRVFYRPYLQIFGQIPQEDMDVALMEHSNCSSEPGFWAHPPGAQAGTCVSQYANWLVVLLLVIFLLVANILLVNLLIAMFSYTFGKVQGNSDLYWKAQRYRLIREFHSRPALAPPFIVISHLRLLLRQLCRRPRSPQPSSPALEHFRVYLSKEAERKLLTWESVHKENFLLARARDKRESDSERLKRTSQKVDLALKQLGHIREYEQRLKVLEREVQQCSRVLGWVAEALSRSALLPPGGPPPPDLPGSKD
Description: (§1) Initially, we assessed the basic properties of the hsTRPM4 mutants using whole-cell patch clamp electrophysiology.

[4] = system: hsTRPM4 L907A, S924A and L907A/S924A mutants; test: as above; conditions: whole-cell voltage clamp, HEK293T
Description: as §1

human TRPM4 [5] = molecular target: T2, human TRPM4 (Homo sapiens, UniProt Q8TD43); test: Inside-out patch clamp, human TRPM4; format: cell-based; set-up: Human TRPM4 (UniProtKB: Q8TD43-1) and mouse Trpm4 (UniProtKB: Q7TN37-1) were amplified via PCR; expressed in transfected cells; conditions: inside-out patch clamp configuration
T2 sequence (Q8TD43 whole entry): as the sequence (Q8TD43 whole entry L907A/S924A) above, with A907L, A924S counted along it
Description: Patch clamp recordings were conducted using an EPC10 patch clamp amplifier and Patchmaster software (HEKA, Germany). An Ag/AgCl wire served as the reference electrode in all experiments. […] Liquid junction potential was compensated before achieving gigaseal formation. All experiments were conducted at room temperature. Whole-cell currents were recorded in transiently transfected HEK293 cells expressing either wildtype human TRPM4, TRPM4-L907A, or TRPM4-S924A. Recordings involved a 400 ms increasing voltage ramp from –100 mV to +100 mV, initiated from a holding potential of 0 mV. The interval between each sweep was 2 seconds, with data sampled at 5 kHz. […] To identify TRPM4 currents, extracellular Na^+ was replaced with equimolar NMDG^+. […] Similar to whole-cell recordings, a 400 ms increasing voltage ramp from –100 mV to +100 mV was applied from a holding potential of 0 mV. The interval between sweeps was 2 seconds, and data were sampled at 5 kHz. […] TRPM4 currents were activated by 500 μM CaCl2 and deactivated by 10 mM EGTA, both added to the intracellular solution. Ca^2+ activation curves were fitted using a likelihood maximization algorithm to estimate the parameters for the sigmoidal fitting curves y-maximum, slope and midpoint as part of the R package sicegar (V0.2.4).

human TRPM4 [6] = molecular target: T2, human TRPM4; test: QPatch automated patch clamp on TRPM4-expressing HEK293 cells; format: cell-based; conditions: hsTRPM4-expressing HEK293 cells
Description: QPatchHTX, an automated electrophysiology platform, was used in single hole mode. One day before use human TRPM4- or TRPM5-expressing HEK293 cells were seeded in a T75 flask at a density of 53k cells per cm^2 and at passages < 23. […] The extracellular solution was (in mM): CaCl2 (7), MgCl2 (2), KCl (5), HEPES (10), NaCl (70), NMDG (70); pH 7.4 with NaOH. The intracellular solution was (in mM): HEPES (10), NMDG (100), NaCl (50), EGTA (20), MgCl2 (1), CaCl2 (21); pH 7.2 with HCl. […] This protocol was repeated every 7 seconds. […] FFA was used as reference compound and applied cumulatively with each concentration incubating at a minimum of 20 voltage protocol runs (140 seconds) with the current after addition of FFA being calculated as full block. […] Each compound was measured at least 3 time independently.

[7] = system: primary mouse neuronal cultures; test: Glutamate-induced excitotoxicity assay (RealTime-Glo viability); format: cell-based; conditions: 5 μM
Description: To evaluate the in vitro efficacy of our developed compounds, we employed primary mouse neuronal cultures (PNCs) and conducted glutamate-induced excitotoxicity assays. Cultures were pre-treated with respective Series 1 and Series 3 compounds before glutamate exposure, and neuronal viability was assessed 15 h post-stimulation with glutamate.
Figure 3 Neuroprotective in vitro evaluation and in vivo pharmacokinetics (A) In vitro evaluation of compound activity on glutamate-induced excitotoxicity in mature primary neuronal cultures. Neuronal cultures were treated with 5 μM of the specified compound or vehicle control 5 h prior to glutamate stimulation, assessing compound rescue activity and toxicity relative to minimal (Vehicle +0 μM Glu) and maximal (Vehicle +50 μM Glu) excitotoxicity. Time course of a representative compound with virtual endpoint at 15 h post stimulation and assay window definition (left). Toxicity of compound treated cultures with and without glutamate stimulation (right). Data are represented as mean and 95% confidence interval; n ≥ 4; ∗p < 0.05, ∗∗p < 0.01, ∗∗∗p < 0.001; One-sample Wilcoxon signed-rank test. […] Mitochondrial membrane potential was measured by the mean fluorescence intensity of TMRE normalized to MitoTracker. Data are represented as mean ± SEM; n = 5; paired t-test. (C) In vivo pharmacokinetics of four selected compounds. Time course of compound concentration in the brain, heart, and plasma after a single dose via intraperitoneal (i.p.) or intravenous (i.v.) application. Data are represented as mean ± SEM. Half-life estimates by non-compartmental analysis are shown as vertical line and IC50 value as dashed horizontal line. (D) Compound concentration in the brain relative to respective IC50 concentrations after a single dose via intra-peritoneal or intra-venous routes. Also see Figure S6.
Excitotoxicity assays were performed using primary mouse neuronal cultures between 14 and 17 days in vitro (DIV). Cell viability was measured using RealTime-Glo MT Cell Viability Assay (Promega, catalog no. G9711) according to the manufacture protocol. Compounds were co-administered with RealTime-Glo reagents, and luciferase measurements were conducted using the Tecan-Spark M10 microplate reader with environmental control set to 37°C and 5% CO2. Neuronal cultures were stimulated with either glutamate or vehicle five hours after compound application and monitored for an additional 20 hours. To adjust for inter-well variability, arbitrary light units were normalized to a steady signal prior to glutamate addition for each well. Toxicity was calculated relative to the minimal cell viability at 15 hours post glutamate stimulation and cell viability of the PBS vehicle control.

[8] = system: primary mouse neuronal cultures; test: TMRE assay of mitochondrial membrane potential after glutamate; format: cell-based; conditions: 50 μM glutamate for 2 h, compound 30 min before
Description: We assessed its ability to inhibit the deterioration of mitochondrial membrane potential (ΔΨm) in response to glutamate-induced excitotoxicity. The ratio between the ΔΨm-dependent dye tetramethylrhodamine ethyl ester (TMRE) and the mitochondrial dye MitoTracker was quantified for this purpose.
Subsequently 50 μM glutamate was applied for in total 2 hours. Then, 20 nM TMRE dye (Abcam, ab113852), 500 nM MitoTracker dye (ThermoFisher, M7512), and 1 μM Hoechst 33342 were added after 1.5 hours glutamate stimulation for 30 minutes. Afterwards cells were washed two times in pre-warmed medium and were imaged immediately in preconditioned medium using a confocal microscope (Zeiss, LSM700) with 20-fold magnification and controlled atmosphere conditions (37°C, 5% CO2). Imaging time was less than 10 minutes per condition. We quantified the total MFI of the MitoTracker and TMRE dyes per cell. At least 50 cells per condition were quantified and the mean ratios of TMRE to Mitotracker per independent experiments were reported.

Row | Compound | Off-target binding in in vitro pharmacology panel [1] | half-life ([2]; brain, ip, read-out: Brain half-life (converted)) | half-life ([2]; brain, iv, read-out: Brain half-life (converted)) | half-life ([2]; heart, ip, read-out: Heart half-life (converted)) | half-life ([2]; heart, iv, read-out: Heart half-life (converted)) | half-life ([2]; plasma, ip, read-out: Plasma half-life (converted)) | half-life ([2]; plasma, iv, read-out: Plasma half-life (converted)) | Activity on mouse TRPM4 (mouse TRPM4) | Affinity in the L907A/S924A double mutant [3] | Current inhibition of hsTRPM4 L907A and S924A mutants versus wildtype [4] | Activity on human TRPM4 (human TRPM4 [5]) | IC50 (human TRPM4 [6]) | Protective effect in excitotoxicity assay ([7]; glutamate-stimulated primary mouse neuronal cultures) | Compound toxicity in neuronal cultures ([7]; primary mouse neuronal cultures) | Mitochondrial membrane potential (ΔΨm), TMRE / MitoTracker ratio [8]
1 | O=C(CCc1ccccc1)Nc1ccc(Br)cc1C(=O)O [CMP233] | no off-target binding | 1.4 h | 0.3 h | 1.1 h | 1.3 h | 0.9 h | 0.5 h | highly effective in both species; also recorded: active on both species | completely abolished | significantly reduced current inhibition in at least one hsTRPM4 mutant variant | highly effective in both species; also recorded: active on both species |  |  |  | 
2 | COc1cccc(-c2ccccc2NCc2nc3ccccc3o2)c1 [CMP312] |  |  |  |  |  |  |  | reduced activity on mouse TRPM4 compared to human TRPM4; also recorded: significantly less effective on mouse TRPM4 | completely abolished | significantly reduced current inhibition in at least one hsTRPM4 mutant variant | almost completely blocked | 4.87 µM | potent protective effects | non-toxicity | mitigated the glutamate-induced decrease in ΔΨm
